Read-outs that look alike come from different tables or passages of the source.
Assays:
[1] = tested on: P. falciparum TM90C2B; format: cell-based; settings: Plasmodium falciparum, read-out: P. falciparum IC50 TM90C2B
[2] = tested on: Chloroquine-sensitive NF54 P. falciparum isolate; assay: In vitro antiplasmodial activity, NF54; format: cell-based, Plasmodium falciparum
[3] = tested on: P. falciparum Dd2; assay: In vitro antiplasmodial activity, Dd2, 72 h [3H]hypoxanthine incorporation; format: cell-based; settings: Plasmodium falciparum, DD2, read-out: P. falciparum IC50 Dd2
[4] = tested on: P. falciparum 7G8; assay: In vitro antiplasmodial activity, 7G8, 72 h [3H]hypoxanthine incorporation; format: cell-based; settings: Plasmodium falciparum, 7G8, read-out: P. falciparum IC50 7G8
[5] = tested on: P. falciparum RF12; assay: In vitro antiplasmodial activity, RF12, 72 h [3H]hypoxanthine incorporation; format: cell-based; settings: Plasmodium falciparum, read-out: P. falciparum IC50 RF12
[6] = tested on: P. falciparum K1; assay: In vitro antiplasmodial activity, K1, 72 h [3H]hypoxanthine incorporation; format: cell-based; settings: Plasmodium falciparum, K1, read-out: P. falciparum IC50 K1
[7] = In vitro intrinsic clearance in mouse liver microsomes; format: in vitro ADME
[8] = In vitro intrinsic clearance in human liver microsomes; format: in vitro ADME; settings: for microsomal CLint: human, liver microsomes, h CLint
[9] = Chromatographic LogD7.4; format: physicochemical; settings: pH 7.4; for gLogD7.4: chromatographically determined; for chromatographic logD: gradient HPLC, Phenomenex Synergi Hydro-RP column
[10] = tested on: rat skeletal myoblast L6 cell line; assay: Cytotoxicity, growth inhibition of L6 cells; format: cell-based; settings: read-out: L6 IC50, mean from n ≥ 2
[11] = Kinetic solubility at pH 6.5 by nephelometry; format: physicochemical; settings: pH 6.5 phosphate buffer, 1% DMSO, solubility range by nephelometry
[12] = tested on: GFP MRA-865 strain of Plasmodium berghei; assay: In vivo antimalarial activity in P. berghei-infected mice; settings: female NMRI mice, four 50 mg/kg daily oral doses; untreated control 52.3 ± 2.6%
[13] = Stability in P. falciparum activity test medium; format: physicochemical; settings: for half-life at 1 μM: P. falciparum in vitro activity test medium
[14] = In vivo pharmacokinetics in mice; set-up: species or system male Swiss outbred mice
[15] = Stability in 0.1 M PBS pH 7.4; format: physicochemical; settings: 7 h incubation period
[16] = read-out: P. falciparum IC50, NF54, mean from n ≥ 2
[17] = Plasmodium falciparum, NF54, read-out: P. falciparum IC50, NF54, mean from n ≥ 2
[18] = Plasmodium falciparum, NF54, read-out: P. falciparum IC50 NF54, Mean ± SD, n ≥ 2, 72 h [3H]hypoxanthine incorporation assay

SMILES | IC50 [1] [nM] | IC50 [3] [nM] | IC50 [5] [nM] | IC50 [6] [nM] | m CLint [7] [μL/min/mg protein] | IC50 [2, 16] [nM] | h CLint [8] [μL/min/mg protein] | gLogD7.4 [9] | IC50 [10] [nM] | Kinetic Sol6.5 [11] [µg/mL] | microsomal CLint [7] [µL/min/mg] | IC50 [2, 17] [nM] | microsomal CLint [8] [µL/min/mg] | chromatographic logD [9] | further results
CCN(CC)CCCC(C)Nc1ccnc2cc(Cl)ccc12 (centres unmarked) [Chloroquine, chloroquine] | 160 ± 22 | 180 ± 21 | 350 | 270 ± 41 |  |  |  |  |  |  |  |  |  |  | IC50 ([2]; Plasmodium falciparum, NF54, read-out: P. falciparum IC50 NF54): 9.1 ± 1.5 nM; IC50 [4]: 57 ± 0.9 nM
O=C1CCc2ccccc2C(=O)N2CCCc3cccc1c32 [Compound 15, 2,3,8,9-Tetrahydro-1H-benzo[7,8]azonino[3,2,1-i,j]-quinoline-7,14-dione] |  |  |  |  | > 870 | 100000 | 310 | 2.9 | 83000 | 25 to 50 |  |  |  |  | 
O=C1Nc2cc(F)cc(F)c2C(=O)CCc2ccccc21 [Compound 28, 1,3-Difluoro-11,12-dihydro-5H-dibenzo[b,g]azonine-6,13-dione] |  |  |  |  |  |  |  |  |  |  | 58 | 7 | 17 | 2.5 | in vitro selectivity index ([2]; antiplasmodial selectivity, L6 cytotoxicity vs P. falciparum): > 10,000; parasitemia [12]: 49.0 ± 4.3%; half-life at 1 μM [13]: 4.7 h; clearance ([14]; male, Swiss outbred, mouse, plasma, iv): 147 mL/min/kg; Cmax ([14]; male, Swiss outbred, mouse, plasma, po): ~500 ng/mL; adverse reactions or compound-related side effects ([14]; mice, 24 h post-dose sampling period, IV and PO): No adverse reactions or compound-related side effects were observed
CCOC(=O)c1ccc2c(c1)C(=O)CCc1ccccc1C(=O)N2 [Compound 18, Ethyl 6,13-Dioxo-6,11,12,13-tetrahydro-5H-dibenzo-[b,g]azonine-2-carboxylate] | 1000 | 30 ± 7.2 | 11 ± 0.86 | 30 ± 7.5 |  |  |  |  |  |  | 910 | 41 | 100 | 2.6 | IC50 [2, 18]: 41 ± 7.4 nM; fold more potent than 2 (antiplasmodial) ([2]; relative to compound 2): roughly 5 fold; IC50 [4]: 32 ± 9.9 nM
O=C1Nc2ccccc2C(=O)CCc2ccccc21 [Compound 2, 11,12-dihydro-5H-dibenzo[b,g]azonine-6,13-dione] |  |  |  |  |  |  | 20 |  |  |  | 39 | 190 | 20 to 40 | 1.9 | loss in 0.1 M PBS pH 7.4 [15]: < 5%; Apparent degradation t1/2, In Vitro Assay Medium ([13]; 1 μM, 37 °C, 6 h incubation, parentheses 95% confidence interval): No loss detected over 6 h
O=C1Nc2ccccc2C(=O)CCc2cc(F)ccc21 [Compound 32, 9-Fluoro-11,12-dihydro-5H-dibenzo[b,g]azonine-6,13-dione] |  |  |  |  |  |  |  |  |  |  | 110 | 130 | 11 | 2.1 | loss in 0.1 M PBS pH 7.4 [15]: < 5%; half-life at 1 μM [13]: 25 h
C[C@H]1[C@H](OC(=O)CCC(=O)O)O[C@@H]2O[C@@]3(C)CC[C@H]4[C@H](C)CC[C@@H]1[C@@]24OO3 [Artesunate, artesunate] | 7.4 ± 1.3 | 6.1 ± 1.4 | 6.8 ± 1.4 | 2.8 ± 0.64 |  |  |  |  |  |  |  |  |  |  | IC50 [2, 18]: 6 ± 0.9 nM
O=C1CCOc2ccccc2C(=O)Nc2ccccc21 [Compound 7, 6,7-Dihydro-8H-dibenzo[b,f][1,5]oxazecine-8,14-(13H)-dione] |  |  |  |  |  | 21000 |  | 2.0 | 31000 | >100 |  |  |  |  | fold less potent than 2 (antiplasmodial) ([2]; relative to compound 2): > 100 fold
O=C1Nc2ncccc2C(=O)CCc2ccccc21 [Compound 29, 6,7-Dihydro-5H-benzo[g]pyrido[2,3-b]azonine-5,12-(13H)-dione] |  |  |  |  | 26 | 8900 | 13 | 1.2 | 60000 | >100 |  |  |  |  | 
O=C1CCc2cccnc2C(=O)Nc2ccccc21 [Compound 31, 5,6-Dihydro-7H-benzo[b]pyrido[3,2-g]azonine-7,13-(12H)-dione] |  |  |  |  | 10 | 11000 | 11 | 0.9 | 190000 | >100 |  |  |  |  | 

Source: paper PMC10860121 (ACS infectious diseases, 2023)
